Results reported in patent US4689344A, “Long-chain α,ω-dicarboxylic acids and derivatives thereof and pharmaceutical compositions containing them” (Epis S.A., priority 1981, dated 1987).
Where “and” joins values, the source holds several entries; their conditions need not be identical. Identical values can stand only once.

What was measured:
liver triglyceride = test: Liver triglyceride content of rats fed carbohydrate-rich diet; type: in vivo, rat; conditions: for Reduction in liver triglyceride content (FIG. 4): carbohydrate-rich diet, compared to control group=100%
serum lipoprotein = test: Serum lipoprotein profile; type: in vivo, rat
Experimental: (§1) Rats starved for 48 hours were fed a high carbohydrate, fat-free diet supplemented with 0.25% of the active compound of Example 5 for 3 days ad libitum.

serum lipids [1] = test: Serum lipids in rats fed high carbohydrate, fat-free diet; type: in vivo, rat
Experimental: (§2) Rats that have previously been starved for 48 hours, were meal-fed or fed ad libitum a high carbohydrate, fat-free diet for 3-5 days, the diet being supplemented with the active compounds of formula (I) at dosages of 25-250 mg per Kg body weight per day. The biological effects in-vivo were evaluated by following the rate of incorporation of injected radioactive precursors (mainly ^3 H2 O) into liver and adipose tissue lipids and comparing the results observed with those obtained from groups of non-treated rats ("control groups"). Dose-response curves were plotted.
The hypolipidemic effect was followed by measuring the triglycerides and cholesterol content in serum of treated rats as compared to non-treated rats.
Rats starved for 48 hours were fed a high carbohydrate, fat-free diet ad libitum for 3 or 5 days, supplemented with the active compound of Example 4 at the proportions shown in the following Table III. The serum lipids were determined in the treated rats and compared to a non-treated control group.
as §1

glucose tolerance = test: Glucose tolerance test (GTT) in diabetic Psamomys Obesus; type: in vivo; parameters: Sum of glucose values at 0, 1, 2, 3h, Treatment / Sum of glucose values at 0, 1, 2, 3h, Elimination of Treatment: unit not given here; conditions: for Sum of glucose values at 0, 1, 2, 3h, Treatment: 0.1% in diet 30-70 days; for Sum of glucose values at 0, 1, 2, 3h, Elimination of Treatment: after return to normal diet
Experimental: (§3) Psamomys Obesus were fed "Amrod 935" Purina Chow diet supplemented with 0.1% of the active compound of Example 4, ad libitum, for periods of 80 or 140 days. The biological effects of the active compound in vivo were evaluated as reported in the following experiments.
Six Psamomys Obesus fed Purina Chow diet ad libitum were selected for their diabetic trait by following their glucose tolerance test (GTT). The selected animals were then treated by feeding the same Purina diet supplemented with 0.1% of the active compound of Example 4 for periods varying between 30-70 days. The GTT was followed periodically throughout this period, as well as for 50 more days after the drug-supplemented diet had been replaced with the normal diet. A diagram of the GTT curves obtained with one representative animal is shown in FIG. 6 of the attached drawings. The GTT values for all six animals are shown in the following Table VIII as the sum of the glucose values observed at 0^h, 1^h, 2^h, 3^h.

serum insulin = test: Serum insulin levels in diabetic Psamomys Obesus; type: in vivo; conditions: non-treated diabetic animals 40-200 uu/ml
[2] = tested on: liver total lipid, triglyceride and cholesterol; test: 3H2O incorporation into liver lipids in vivo (total lipid, triglyceride, cholesterol); parameters: species or system rat; conditions: n = 5
Experimental: ^3 H2 O incorporation into liver lipids in vico (in μmole/gr liver) was tested in rats fed for 3 days a single daily meal of a high carbohydrate diet containing 0.25% of the active compound of Example 4.
The procedure of Experiment I(b) was repeated for 5 days.
as §2

[3] = tested on: GT of non-diabetic Psamomys; test: Effect on GT of non-diabetic Psamomys; type: in vivo
[4] = tested on: diabetes induced by steptozocin; test: Effect on diabetes induced by steptozocin in rats; type: in vivo, rat
[5] = tested on: neutral fat in liver and adipose tissue and liver cholesterol; test: 3H2O incorporation into neutral fat in liver and adipose tissue and into liver cholesterol in vivo; parameters: species or system rat
Experimental: as §2
Incorporation of ^3 H2 O into neutral fat in liver and adipose tissue and into liver cholesterol in vivo.
^3 H2 O incorporation into liver and adipose tissue lipids in vivo was tested in rats fed a high carbohydrate diet ad libitum for three days, supplemented with varying proportions (in percent of the diet) of the active compounds of Examples 4, 5 and 9. ^3 H2 O was then administered to the animals and the rates of incorporation of tritium (in μmole/gr/60 min) into various lipid fractions in liver and adipose tissue were determined and compared to the tritium incorporation under identical conditions in the control groups of rats.

serum lipids [6] = test: Serum triglyceride and cholesterol levels in Psamomys Obesus; type: in vivo; conditions: Table VI, young animals, 0.1% in diet, 140 days, n = 7
Experimental: as §3
Groups of young and old Psamomys were fed the above described diet for 140 and 80 days, respectively, whereafter the serum triglyceride and cholesterol levels were determined.

[7] = Body weight of Psamomys Obesus; type: in vivo; conditions: Table VII; for Weight gain (gr) average: 0.1% in diet
Experimental: as §3
The above experiment was repeated with groups of young and old Psamomys and the body weight determined.

LD50 in rats (p.o.) = conditions: rat, in vivo, po
[8] = tested on: oxidation of glucose, palmitate or acetate to CO2; test: Oxidation of glucose, palmitate or acetate to CO2 in vivo; parameters: species or system rat; conditions: rats, additional experiments

## CC(C)(CCCCCCCCCCC(C)(C)C(Br)C(=O)O)C(Br)C(=O)O (centres unmarked) [Example 9, 2,15-Dibromo-3,3,14,14-tetramethyl-hexadecane-1,16-dioic acid]
Liver triglyceride
  Reduction in liver triglyceride content (FIG. 4): reduction in liver triglyceride content

## CC(C)(CCCCCCCCCCCCC(C)(C)CC(=O)O)CC(=O)O [Example 5, 3,3,16,16-Tetramethyl-octadecane-1,18-dioic acid]
Serum lipoprotein; Table V, 0.25% of diet, 3 days, non-treated 1.05
  HDL (VLDL + LDL): 1.50
Serum lipoprotein; Table V, 0.25% of diet, 3 days, non-treated 19.00
  LDL cholesterol: 6.00 mg %
Serum lipoprotein; Table V, 0.25% of diet, 3 days, non-treated 23.00
  VLDL cholesterol: 10.00 mg %
Serum lipoprotein; Table V, 0.25% of diet, 3 days, non-treated 43.00
  HDL cholesterol: 24.00 mg %
Liver triglyceride
  Reduction in liver triglyceride content (FIG. 4): reduction in liver triglyceride content
Serum lipids [1]; Table IV, 0.25% of diet, 3 days ad libitum, n = 9, non-treated 48 ± 6
  Serum triglycerides: 33 ± 3 mg %
Serum lipids [1]; Table IV, 0.25% of diet, 3 days ad libitum, n = 12, non-treated 80 ± 12
  Serum cholesterol: 40 ± 11 mg %

## CC(C)(CCCCCCCCCCC(C)(C)CC(=O)O)CC(=O)O [Example 4, 3,3,14,14-Tetramethyl-hexadecane-1,16-dioic acid]
Glucose tolerance; 0.1% in diet, 30-70 days
  Correction of the GTT curve: correction of the GTT curve in 5 or 6 test animals
Glucose tolerance; Psamomys I, pretreatment 779, 1082
  Sum of glucose values at 0, 1, 2, 3h, Treatment: 364
Glucose tolerance; Psamomys II, pretreatment 947, 980, 958
  Sum of glucose values at 0, 1, 2, 3h, Treatment: 442
Glucose tolerance; Psamomys III, pretreatment 790
  Sum of glucose values at 0, 1, 2, 3h, Treatment: 296 and 329 and 326
Glucose tolerance; Psamomys III
  Sum of glucose values at 0, 1, 2, 3h, Elimination of Treatment: 849
Glucose tolerance; Psamomys IV, pretreatment 992
  Sum of glucose values at 0, 1, 2, 3h, Treatment: 358 and 336 and 465
Glucose tolerance; Psamomys IV
  Sum of glucose values at 0, 1, 2, 3h, Elimination of Treatment: 1049
Glucose tolerance; Psamomys V, pretreatment 867
  Sum of glucose values at 0, 1, 2, 3h, Treatment: 434 and 257 and 388
Glucose tolerance; Psamomys V
  Sum of glucose values at 0, 1, 2, 3h, Elimination of Treatment: 470
Glucose tolerance; Psamomys VI, pretreatment 717
  Sum of glucose values at 0, 1, 2, 3h, Treatment: 555
Glucose tolerance; after termination of the treatment
  Diabetic trait after termination of the treatment: revert to their original diabetic trait
Serum insulin
  Serum insulin levels during the treatment period: lower than 40 uu/ml
Serum lipoprotein; summary, rats
  Change in the serum lipoprotein profile: significant change in the serum lipoprotein profile
[2]; Table I, 3 days, single daily meal, 0.25% in high carbohydrate diet, non-treated 2.7 ± 1.1
  3H2O incorporation into liver cholesterol: 0.8 ± 0.2 μmole/gr liver
[2]; Table I, 3 days, single daily meal, 0.25% in high carbohydrate diet, non-treated 107 ± 21
  3H2O incorporation into liver triglyceride: 19 ± 2 μmole/gr liver
[2]; Table I, 3 days, single daily meal, 0.25% in high carbohydrate diet, non-treated 157 ± 34
  3H2O incorporation into liver total lipid: 47 ± 5 μmole/gr liver
[2]; Table II, 5 days, procedure of Experiment I(b), non-treated 2.8 ± 0.8
  3H2O incorporation into liver cholesterol: 1.4 ± 0.4 μmole/gr liver
[2]; Table II, 5 days, procedure of Experiment I(b), non-treated 71 ± 12
  3H2O incorporation into liver triglyceride: 20 ± 7 μmole/gr liver
[2]; Table II, 5 days, procedure of Experiment I(b), non-treated 107 ± 18
  3H2O incorporation into liver total lipid: 53 ± 13 μmole/gr liver
[3]
  Effect on GT of non-diabetic Psamomys: affects neither
[4]
  Effect on diabetes induced by steptozocin: affects neither
[5]; 100 mg/Kg body wt/day
  Inhibition of in vivo incorporation of 3H2O into cholesterol in liver: 50%
  Inhibition of in vivo incorporation of 3H2O into neutral fat (diglycerides, triglycerides) in liver: 50%
[5]; 250 mg/Kg body wt/day
  Inhibition of in vivo incorporation of 3H2O into cholesterol in liver: 80%
  Inhibition of in vivo incorporation of 3H2O into neutral fat (diglycerides, triglycerides) in liver: 80%
[5]; adipose tissue
  In vivo incorporation of 3H2O into neutral fat in adipose tissue: block
Serum lipids [6]; non-treated 65 ± 7
  Serum cholesterol: 46 ± 7 mg %
Serum lipids [6]; non-treated 205 ± 29
  Serum triglycerides: 62 ± 15 mg %
[7]; old animals, initial 254 ± 52, non-treated gain 11 ± 13
  Weight gain (gr) average: -26 ± 8 gr
[7]; young animals, n = 7, initial 92 ± 19, non-treated gain 57 ± 33
  Weight gain (gr) average: 36 ± 12 gr
[7]; young animals, individual values, non-treated 38, 38, 40, 55, 116
  Weight gain (gr): 25 gr and 29 gr and 31 gr and 32 gr and 33 gr and 38 gr and 62 gr
[7]; young animals, siblings a, non-treated sibling 55
  Siblings' weight grain (gr): 25 gr and 33 gr
[7]; young animals, siblings b, non-treated sibling 116
  Siblings' weight grain (gr): 31 gr and 38 gr
Liver triglyceride
  Reduction in liver triglyceride content (FIG. 4): reduction in liver triglyceride content
Liver triglyceride; summary, rats
  Decrease in the triglyceride content of the liver: 30-50%
LD50 in rats (p.o.)
  LD50: > 7000 mg/kg
[8]
  Oxidation of glucose, palmitate or acetate to CO2 in vivo: does not affect
Serum lipids [1]; Table III, 0.06% of diet, ad libitum 3 or 5 days, n = 5, non-treated 41 ± 6
  Serum triglycerides: 15 ± 4 mg %
Serum lipids [1]; Table III, 0.06% of diet, ad libitum 3 or 5 days, n = 5, non-treated 64 + 10
  Serum cholesterol: 38 ± 5 mg %
Serum lipids [1]; Table III, 0.15% of diet, ad libitum 3 or 5 days, n = 5, non-treated 41 ± 6
  Serum triglycerides: 21 ± 4 mg %
Serum lipids [1]; Table III, 0.15% of diet, ad libitum 3 or 5 days, n = 5, non-treated 64 + 10
  Serum cholesterol: 32 ± 5 mg %
Serum lipids [1]; Table III, 0.25% of diet, ad libitum 3 or 5 days, n = 5, non-treated 41 ± 6
  Serum triglycerides: 15 ± 4 mg %
Serum lipids [1]; Table III, 0.25% of diet, ad libitum 3 or 5 days, n = 5, non-treated 64 + 10
  Serum cholesterol: 31 ±3 mg %
Serum lipids [1]; summary, rats
  Decrease in serum cholesterol: 50%
  Decrease in serum glycerides: up to 60%
